In patent publication US4061741A, “Physiological substances for intensifying the pharmacological effect of drugs” (Firma Servomed Arzei GmbH & Co. Pharma KG, priority 1974, dated 1977):
“Also recorded” adds a separate entry of the source. Where a name gives a salt, the structure may show the parent alone.

Columns and labels:
CFI mice = assay: analgesic efficacy, writhing test, 60 minutes after oral application (Examples 5 to 8, Tables V to VIII); format: in vivo, mouse (CFI); conditions: for ED50: Mus musculus, 1 h, 60 mins.
Method: The analgesic efficacy of sodium salicylate, sodium salicylate + choline orotate in the molar ratio of 1:1 and sodium salicylate + choline orotate in the molar ratio of 1:2 was compared in the writhing test on mice and the ED50 determined after 1 hour.
As in Example 5, the ED50 of metamizol and metamizol + choline orotate in the molar ratio of 1:2 was determined after one hour by the writhing test.
The analgesic effects of codeine phosphate and codeine phosphate + choline orotate (molar ratio 1:1) are compared in the writhing test on mice.

NMRI mice = assay: analgesic efficacy, writhing syndrome, oral (Example 1, Table I); format: in vivo, mouse (NMRI, female)
Method: Dextropropoxyphene-HCl, dextropropolyphenorotate and dextropropoxyphene orotate + orotic acid (in the molar ratio 1:1) were tested on mice to determine their analgesic efficacy after oral administration following the "writhing" syndrome. The ED50 was determined after 15 minutes, 30 minutes, 60 minutes and 180 minutes.
ED50 in […] of mouse (calculated with respect to the
dextropropoxyphene-HCl);
oral application, writhing syndrome, 800 NMRI mice, […]

guinea pigs [1] = assay: antitussive efficacy, Turner cough test, citric acid aerosol, oral (Example 4, Table IV); format: in vivo; conditions: guinea pig, calculated with respect to 1-propoxyphene-HCl
Method: The antitussive efficacy of laevopropoxyphene-HCl, laevopropoxyphene orotate, laevopropoxyphene orotate + choline orotate (in the molar ratio 1:1) and of laevopropoxyphene-HCl + choline orotate (in the molar ratio of 1:2) was tested and compared after oral application on guinea pigs using the Turner cough test.
ED50 in mg/kg of guinea pig. Values calculated with respect
280 guinea pigs (350 g); oral application.
7.5% citric acid aerosol.

guinea pigs [2] = assay: antitussive action, Turner cough test, citric acid aerosol, intravenous (Example 3, Table III); format: in vivo, guinea pig
Method: As with Example 2, the two substances laevopropoxyphene-HCl and laevopropoxyphene orotate were tested and compared with respect to their antitussive action. This time, however, intravenous applications were adopted.
% cough inhibition; the figures in brackets represent mg
propoxyphene-HCl in the 1-propoxyphene orotate.
320 guinea pigs (350 g); intravenous application. 7.5%

guinea pigs [3] = assay: antitussive efficacy, Turner cough test, citric acid aerosol, oral (Example 2, Table II); format: in vivo, guinea pig; conditions: for % cough inhibition: 30 minutes after oral application; for ED50: calculated according to the Gaussian Integral from the values of Table II, 30 minutes; for ED50 / antitussive efficacy (in words): oral; for antitussive efficacy (in words): in the dosages tested, guinea pigs
Method: The antitussive efficacy of laevopropoxyphene-HCl and laevopropoxyphene orotate was compared on guinea pigs, using the Turner cough test.
% cough inhibition 30 minutes after oral application.
70 guinea pigs, 250 g; 7.5% citric acid aerosol for 10
minutes in the respired air.
According to the Gaussian Integral, from the values shown in the Table, the ED50 can be calculated for: L-propoxyphene-HCl as being greater than 200 mg/kg of animal, 1-propoxyphene orotate 79 ± 8 mg/kg of animal.

blood proteins = assay: drug not bonded to serum protein, ultrafiltration of human serum with and without orotic acid; format: in vitro ADME; conditions: in the presence of orotic acid
Method: 1 ml of this serum is then ultrafiltered at the same temperature, accompanied by agitation. (Filter permeability up to a molecular weight of approx. 10,000). The radioactivity contained in this ml is measured. The measured value, found […], indicates the percentage of drug which is not bonded to protein. The same test is repeated but in the presence of non-radioactively marked orotic acid in a molar ratio to the marked drug of for example 1:1 or 1:2. The percentage of free drug is calculated similarly as described above. If the second measured value is higher than the first, then this is a measure of improved availability of the drug. This increased availability is confirmed in experiments with animals.

COc1ccc2c3c1O[C@H]1[C@@H](O)C=C[C@H]4[C@@H](C2)N(C)CC[C@@]341 [Codeine phosphate]
ED50 (CFI mice; oral, writhing syndrome, CFI mice, female, 20 to 22 g, Table VII): 82 mg/kg

CCC(=O)O[C@](Cc1ccccc1)(c1ccccc1)[C@H](C)CN(C)C [Dextropropoxyphene orotate]
analgesic efficacy (in words) (NMRI mice): substantially more intensely effective as an analgesic than dextropropoxyphene-HCl by itself

CCC(=O)O[C@@](Cc1ccccc1)(c1ccccc1)[C@@H](C)CN(C)C [Laevopropoxyphene orotate]
ED50 (guinea pigs [1]; 1 hr., listed as Laevopropoxyphene crotate, 60 min): 103 mg/kg | ED50 (guinea pigs [1]; 3 hr., listed as Laevopropoxyphene crotate, 180 min): 68 mg/kg | % cough inhibition (guinea pigs [2]; 1 (0.758) mg/kg, 5 min., bracket = mg propoxyphene-HCl): 17.5% | % cough inhibition (guinea pigs [2]; 1 (0.758) mg/kg, 10 min.): 24% | % cough inhibition (guinea pigs [2]; 1 (0.758) mg/kg, 15 min.): 30% | % cough inhibition (guinea pigs [2]; 1 (0.758) mg/kg, 20 min.): 23% | % cough inhibition (guinea pigs [2]; 3 (2.27) mg/kg, 5 min.): 31.0% | % cough inhibition (guinea pigs [2]; 3 (2.27) mg/kg, 10 min.): 30% | % cough inhibition (guinea pigs [2]; 3 (2.27) mg/kg, 15 min.): 36% | % cough inhibition (guinea pigs [2]; 3 (2.27) mg/kg, 20 min.): 47% | % cough inhibition (guinea pigs [2]; 5 (3.79) mg/kg, 5 min.): 40.5% | % cough inhibition (guinea pigs [2]; 5 (3.79) mg/kg, 10 min.): 48% | % cough inhibition (guinea pigs [2]; 5 (3.79) mg/kg, 15 min.): 53% | % cough inhibition (guinea pigs [2]; 5 (3.79) mg/kg, 20 min.): 59% | % cough inhibition (guinea pigs [2]; 7.5 (5.69) mg/kg, 5 min.): 52.0% | % cough inhibition (guinea pigs [2]; 7.5 (5.69) mg/kg, 10 min.): 59% | % cough inhibition (guinea pigs [2]; 7.5 (5.69) mg/kg, 15 min.): 63% | % cough inhibition (guinea pigs [2]; 7.5 (5.69) mg/kg, 20 min.): 62% | antitussive efficacy (in words) (guinea pigs [2]; guinea pigs): superior efficacy | % cough inhibition (guinea pigs [3]; 25 mg/kg): 6% | % cough inhibition (guinea pigs [3]; 50 mg/kg): 31% | % cough inhibition (guinea pigs [3]; 75 mg/kg): 47% | % cough inhibition (guinea pigs [3]; 100 mg/kg): 56% | ED50 (guinea pigs [3]; listed as 1-propoxyphene orotate): 79 ± 8 mg/kg of animal | antitussive efficacy (in words) (guinea pigs [3]): outstanding antitussive efficacy

CCC(=O)O[C@@](Cc1ccccc1)(c1ccccc1)[C@@H](C)CN(C)C [Laevopropoxyphene-HCl]
ED50 (guinea pigs [1]; 1 hr., listed as Laevorpopoxyphene-HCl, 60 min): 250 mg/kg | ED50 (guinea pigs [1]; 3 hr., listed as Laevorpopoxyphene-HCl, 180 min): 195 mg/kg | % cough inhibition (guinea pigs [2]; 2 mg/kg, 5 min.): 11% | % cough inhibition (guinea pigs [2]; 2 mg/kg, 10 min.): 0% | % cough inhibition (guinea pigs [2]; 2 mg/kg, 15 min.): 0% | % cough inhibition (guinea pigs [2]; 5 mg/kg, 5 min.): 24% | % cough inhibition (guinea pigs [2]; 5 mg/kg, 10 min.): 0% | % cough inhibition (guinea pigs [2]; 5 mg/kg, 15 min.): 0% | toxicity remark in the cough inhibition table (guinea pigs [2]; 7.5 mg/kg): subtoxic | % cough inhibition (guinea pigs [3]; 25 mg/kg): 0% | % cough inhibition (guinea pigs [3]; 50 mg/kg): 8% | % cough inhibition (guinea pigs [3]; 75 mg/kg): 0% | % cough inhibition (guinea pigs [3]; 100 mg/kg): 11% | % cough inhibition (guinea pigs [3]; 150 mg/kg): 0% | % cough inhibition (guinea pigs [3]; 200 mg/kg): 9% | ED50 (guinea pigs [3]; listed as L-propoxyphene-HCl): greater than 200 mg/kg of animal | antitussive efficacy (in words) (guinea pigs [3]): no antitussive efficacy

Cc1c(N(C)CS(=O)(=O)O)c(=O)n(-c2ccccc2)n1C [Metamizol]
ED50 (CFI mice; oral, writhing test, CFI mice (18 to 20 g), Table VI): 380 mg/kg | analgesic efficacy on addition of an orotic acid salt (in words) (CFI mice; metamizol, writhing test, mice, oral): reinforcement of the analgesic efficacy

CCCCC1C(=O)N(c2ccccc2)N(c2ccccc2)C1=O [Phenyl butazone]
ED50 (CFI mice; oral, writhing syndrome, CFI mice, female, 20 to 22 g, Table VIII): 130 ± 45 mg/kg | analgesia in animal experiments (in words) (CFI mice; in the presence of orotic acid): no reinforced analgesia; also recorded: no reinforced pharmacological action | amount of drug in the ultrafiltrate (in words) (blood proteins): not found in increased quantity in the ultrafiltrate; also recorded: no more drug is found

O=C([O-])c1ccccc1O.[Na+] [Sodium salicylate]
ED50 (CFI mice; oral, writhing test, CFI mice (18 - 20 g), Table V): 580 mg/kg
